# Experimental data: patent US9993462B2, “Hydantoin derivative-containing pharmaceutical composition” (Chugai Seiyaku Kabushiki Kaisha, priority 2014, dated 2018)
# Experiments:
# normal rats = assay: Growth plate cartilage histology after four weeks of repeated oral administration to normal rats; format: in vivo, rat
# Method: Female RccHan: WIST rats obtained from Japan Laboratory Animals Inc. were acclimated for at least one week under standard laboratory conditions of 20° C. to 26° C. and 30% to 70% humidity, and then used in experiments. The rats had free access to tap water and a standard rodent diet (CE-2, Clea Japan Inc.) containing 1.1% calcium, 1.0% phosphoric acid, and 250 IU/100 g vitamin D3.
# After body weight measurement for the six-week old rats, they were divided into groups so that the average body weight of each group of ten rats would be even. From the day following group division, all rats were administered once a day repeatedly for four weeks. The solvent (vehicle) was orally administered to the Vehicle-Control group. To the Compound 7-6 mg/kg group, Compound 7-60 mg/kg group, and Compound 7-600 mg/kg group, Compound 7 suspended in the vehicle was administered orally at a dose of 6 mg/kg, 60 mg/kg, and 600 mg/kg, respectively. For all groups, the volume of administration was 2 mL/kg. Propylene glycol (special grade, Kanto Chemical Co., Inc.) was used for the vehicle. The rats were euthanized under anesthesia one day after the final administration by collecting blood from the abdominal aorta, and then autopsy was performed to collect the femur. The femur was fixed using a 10% neutral buffered formalin solution, and after demineralization, samples of paraffin-embedded tissue sections (hematoxylin-eosin stained) were prepared. Distal ends of the femur of the produced samples were observed histopathologically under a light microscope.
# rat PTH1R = molecular target: T1, rat PTH1R (Rattus norvegicus, UniProt P25961); assay: In vitro cAMP signaling activity via the rat PTH1R (LLC-PK46_RATO_PTH1R cells); format: cell-based; details: LLC-PK46_RATO_PTH1R cells overexpressing rat PTH1R
# T1 construct: expressed in transfected cells
# T1 sequence (P25961 27-591): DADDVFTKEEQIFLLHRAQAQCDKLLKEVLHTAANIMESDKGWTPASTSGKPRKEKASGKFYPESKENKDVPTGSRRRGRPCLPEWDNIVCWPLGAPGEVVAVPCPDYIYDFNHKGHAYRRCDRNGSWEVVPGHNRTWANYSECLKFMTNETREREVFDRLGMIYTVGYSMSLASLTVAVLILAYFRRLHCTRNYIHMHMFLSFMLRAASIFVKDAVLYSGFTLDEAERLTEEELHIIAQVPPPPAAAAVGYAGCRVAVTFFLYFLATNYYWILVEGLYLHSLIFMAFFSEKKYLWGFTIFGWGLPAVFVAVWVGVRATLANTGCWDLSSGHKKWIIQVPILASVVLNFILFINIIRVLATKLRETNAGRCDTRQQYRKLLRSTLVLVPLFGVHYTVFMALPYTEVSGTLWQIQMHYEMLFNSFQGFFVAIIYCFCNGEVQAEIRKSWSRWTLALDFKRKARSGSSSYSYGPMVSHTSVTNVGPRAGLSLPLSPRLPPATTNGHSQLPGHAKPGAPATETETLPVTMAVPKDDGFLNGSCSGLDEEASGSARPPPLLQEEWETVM
# Text: Instead of HKRK-B7 cells, LLC-PK46_RATO_PTH1R cells overexpressing rat PTH1R, which were established at Chugai Pharmaceutical, were used to take measurements in a similar manner to Reference Test Example 1.
# rat hepatocyte = assay: Metabolic stability using rat hepatocyte; format: in vitro ADME
# Method: Liver cells were prepared from the liver of rats (SD, female) by a collagenase perfusion method. A compound of the Reference Examples or a Comparative Example was added, and this was incubated at 37° C. for a specified amount of time, followed by addition of a reaction-stopping solution. The concentration of the parent compound at each reaction time was measured using LC/MS/MS, and inherent clearance (μL/10^6 cells/min) was calculated from the slope of the reaction time versus residual rate.
# • Cell concentration: 1×10^6 cells/mL • Compound concentration: 1 μM • Medium: Williams' medium E • Reaction time: 0, 15, 30, 60, 120, and 240 minutes • Reaction-stopping solution: acetonitrile/2-propanol (4/6, v/v)
# [1] = 60 mg/kg oral once a day for four weeks, 10 per group
# [2] = 600 mg/kg oral once a day for four weeks, 10 per group
structure (smiles),measurement,setting,value
"Cc1cc(N2C(=O)NC(=O)C2(C)C)cc(C)c1CCS(=O)(=O)N1CCC2(CC1)N=C(c1ccc(OC(F)(F)F)cc1)NC2=O [Compound 7, 1-(3,5-dimethyl-4-(2-((4-oxo-2-(4-(trifluoromethoxy)phenyl)-1,3,8-triazaspiro[4.5]deca-1-en-8-yl)sulfonyl)ethyl)phenyl)-5,5-dimethylimidazolidine-2,4-dione]","Number of cases in which growth plate cartilage thickening was observed, Grade 1",normal rats; [1],5
same,"Number of cases in which growth plate cartilage thickening was observed, Grade 2",normal rats; [1],3
same,"Number of cases in which growth plate cartilage thickening was observed, Overall",normal rats; [1],8
same,"Number of cases in which growth plate cartilage thickening was observed, Grade 3",normal rats; [2],1
same,"Number of cases in which growth plate cartilage thickening was observed, Grade 4",normal rats; [2],9
same,"Number of cases in which growth plate cartilage thickening was observed, Overall",normal rats; [2],10
same,thickening of the femoral growth plate cartilage in comparison to the Vehicle-Control group (in words),"normal rats; 6, 60, 600 mg/kg oral once a day for four weeks",dose-dependent thickening
same,width of a representative growth plate cartilage,"normal rats; one individual of the 600 mg/kg group, from the tissue image of FIG. 8 (Vehicle-Control individual approximately 390 μm)",approximately 2940 μm
same,EC20,rat PTH1R,500 nM
same,"rat hepatocyte metabolic stability compared to Comparative Examples 1, 2, 3, 5, and 6 (in words)",rat hepatocyte,increased
